According to patent US5393869A, “Parathyroid hormone derivatives” (Takeda Chemical Industries, Ltd., priority 1990, dated 1995):

Target: T1, PTH receptor (Mus musculus, UniProt P41593)
T1 construct: a mouse cranial bone-derived osteoblast-like cell strain, MC3T3-EI cells, cultivated on a 96-well multiplate; endogenous in cells; host or cells: MC3T3-E1 mouse osteoblast-like cells
T1 sequence (P41593 27-591): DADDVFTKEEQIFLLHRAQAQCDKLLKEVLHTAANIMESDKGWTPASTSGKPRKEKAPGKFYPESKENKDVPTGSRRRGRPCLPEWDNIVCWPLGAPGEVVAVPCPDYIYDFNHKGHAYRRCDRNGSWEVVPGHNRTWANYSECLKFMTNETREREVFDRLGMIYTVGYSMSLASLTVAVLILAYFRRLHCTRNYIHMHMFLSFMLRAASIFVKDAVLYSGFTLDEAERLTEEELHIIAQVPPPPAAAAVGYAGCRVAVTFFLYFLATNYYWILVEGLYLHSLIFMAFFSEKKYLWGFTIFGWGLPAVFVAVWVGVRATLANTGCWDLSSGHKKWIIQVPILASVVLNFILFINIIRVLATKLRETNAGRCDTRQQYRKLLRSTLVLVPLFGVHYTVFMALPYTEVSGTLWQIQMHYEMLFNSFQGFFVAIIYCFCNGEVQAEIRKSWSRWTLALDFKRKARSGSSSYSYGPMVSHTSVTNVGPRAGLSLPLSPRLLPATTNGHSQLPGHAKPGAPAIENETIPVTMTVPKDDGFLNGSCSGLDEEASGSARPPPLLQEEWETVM
Assay: cAMP production by PTH (1-34) analogues in MC3T3-EI osteoblast-like cells
Format: cell-based
Conditions: cAMP production, 0.01-100 nM analogue, room temperature 30 minutes, hPTH(1-34) = 1.00
Procedure: The biological activity of the peptide analogues was evaluated by a modified version of the method reported by Shigeno et al. in The Journal of Biological Chemistry 263, 18369-18377 (1988). A culture solution (Hank's solution, containing 20 mM N-2-hydroxyethylpiperazine-N'-2-ethanesulfonic acid (HEPES), 0.1% bovine serum albumin and 0.5 mM isobutylmethyl-xanthine) containing 0.01, 0.1, 1, 10 or 100 nM analogue was added in an amount of 100 μto a mouse cranial bone-derived osteoblast-like cell strain, MC3T3-EI cells, cultivated on a 96-well multiplate (Nunclon, Nunc), followed by reaction at room temperature for 30 minutes. After addition of 100 μof 0.2N hydrochloric acid, the mixture was immersed in boiling water for 2.5 minutes, and cyclic adenosine monophosphate (cAMP) produced by a PTH receptor was extracted from the cells. The total cAMP in the culture solution and the cells was assayed using a commercial radioimmunoassay kit (cyclic AMP [^125 I] kit "Du Pont-Daiichi", Daiichi Kagaku Yakuhin).

Compound	Biological Activity (Represented by Relative Activity to hPTH(1-34))
CC[C@H](C)[C@H](NC(=O)[C@H](CCC(=O)O)NC(=O)[C@H](CO)NC(=O)[C@@H](NC(=O)[C@@H](N)CO)C(C)C)C(=O)N[C@@H](CCC(N)=O)C(=O)N[C@@H](CC(C)C)C(=O)N[C@@H](CCSC)C(=O)N[C@@H](Cc1c[nH]cn1)C(=O)N[C@@H](CC(N)=O)C(=O)N[C@@H](CC(C)C)C(=O)NCC(=O)N[C@@H](CCCCN)C(=O)N[C@@H](Cc1c[nH]cn1)C(=O)N[C@@H](CC(C)C)C(=O)N[C@@H](CC(N)=O)C(=O)N[C@@H](CO)C(=O)N[C@@H](CC(C)C)C(=O)N[C@@H](CCC(=O)O)C(=O)N[C@@H](CCCNC(=N)N)C(=O)N[C@H](C(=O)N[C@@H](CCC(=O)O)C(=O)N[C@@H](Cc1c[nH]c2ccccc12)C(=O)N[C@@H](CC(C)C)C(=O)N[C@@H](CCCNC(=N)N)C(=O)N[C@@H](CCCCN)C(=O)N[C@@H](CCCCN)C(=O)N[C@@H](CC(C)C)C(=O)N[C@@H](CCC(N)=O)C(=O)N[C@@H](CC(=O)O)C(=O)N[C@H](C(=O)N[C@@H](Cc1c[nH]cn1)C(=O)N[C@@H](CC(N)=O)C(=O)N[C@@H](Cc1ccccc1)C(=O)O)C(C)C)C(C)C [[Leu^18] hPTH (1-34), (Leu^18)hPTH(1-34)]	0.4
CC[C@H](C)[C@H](NC(=O)[C@H](CCC(=O)O)NC(=O)[C@H](CO)NC(=O)[C@@H](NC(=O)[C@@H](N)CO)C(C)C)C(=O)N[C@@H](CCC(N)=O)C(=O)N[C@@H](CC(C)C)C(=O)N[C@@H](CCSC)C(=O)N[C@@H](Cc1c[nH]cn1)C(=O)N[C@@H](CC(N)=O)C(=O)N[C@@H](CC(C)C)C(=O)NCC(=O)N[C@@H](CCCCN)C(=O)N[C@@H](Cc1c[nH]cn1)C(=O)N[C@@H](CC(C)C)C(=O)N[C@@H](CC(N)=O)C(=O)N[C@@H](CO)C(=O)N[C@@H](CCSC)C(=O)N[C@@H](CCC(=O)O)C(=O)N[C@@H](CCCNC(=N)N)C(=O)N[C@H](C(=O)N[C@@H](CCC(=O)O)C(=O)N[C@@H](Cc1c[nH]c2ccccc12)C(=O)N[C@@H](CC(C)C)C(=O)N[C@@H](Cc1c[nH]cn1)C(=O)N[C@@H](CCCCN)C(=O)N[C@@H](CCCCN)C(=O)N[C@@H](CC(C)C)C(=O)N[C@@H](CCC(N)=O)C(=O)N[C@@H](CC(=O)O)C(=O)N[C@H](C(=O)N[C@@H](Cc1c[nH]cn1)C(=O)N[C@@H](CC(N)=O)C(=O)N[C@@H](Cc1ccccc1)C(=O)O)C(C)C)C(C)C [[His^25] hPTH (1-34), (His^25)hPTH(1-34)]	1.0
CC[C@H](C)[C@H](NC(=O)[C@H](CCC(=O)O)NC(=O)[C@H](CO)NC(=O)[C@@H](NC(=O)[C@@H](N)CO)C(C)C)C(=O)N[C@@H](CCC(N)=O)C(=O)N[C@@H](CC(C)C)C(=O)N[C@@H](CCSC)C(=O)N[C@@H](Cc1c[nH]cn1)C(=O)N[C@@H](CC(N)=O)C(=O)N[C@@H](CC(C)C)C(=O)N[C@H](CO)C(=O)N[C@@H](CCCCN)C(=O)N[C@@H](Cc1c[nH]cn1)C(=O)N[C@@H](CC(C)C)C(=O)N[C@@H](CC(N)=O)C(=O)N[C@@H](CO)C(=O)N[C@@H](CCSC)C(=O)N[C@@H](CCC(=O)O)C(=O)N[C@@H](CCCNC(=N)N)C(=O)N[C@H](C(=O)N[C@@H](CCC(=O)O)C(=O)N[C@@H](Cc1c[nH]c2ccccc12)C(=O)N[C@@H](CC(C)C)C(=O)N[C@@H](CCCNC(=N)N)C(=O)N[C@@H](CCCCN)C(=O)N[C@@H](CCCCN)C(=O)N[C@@H](CC(C)C)C(=O)N[C@@H](CCC(N)=O)C(=O)N[C@@H](CC(=O)O)C(=O)N[C@H](C(=O)N[C@@H](Cc1c[nH]cn1)C(=O)N[C@@H](CC(N)=O)C(=O)N[C@@H](Cc1ccccc1)C(N)=O)C(C)C)C(C)C [[D-Ser^12] hPTH (1-34)NH2, (D-Ser^12)hPTH(1-34)NH2]	0.8
CC[C@H](C)[C@H](NC(=O)[C@H](CCC(=O)O)NC(=O)[C@H](CO)NC(=O)[C@@H](NC(=O)[C@@H](N)CO)C(C)C)C(=O)N[C@@H](CCC(N)=O)C(=O)N[C@@H](CC(C)C)C(=O)N[C@@H](CC(C)C)C(=O)N[C@@H](Cc1c[nH]cn1)C(=O)N[C@@H](CC(N)=O)C(=O)N[C@@H](CC(C)C)C(=O)NCC(=O)N[C@@H](CCCCN)C(=O)N[C@@H](Cc1c[nH]cn1)C(=O)N[C@@H](CC(C)C)C(=O)N[C@@H](CC(N)=O)C(=O)N[C@@H](CO)C(=O)N[C@@H](CCSC)C(=O)N[C@@H](CCC(=O)O)C(=O)N[C@@H](CCCNC(=N)N)C(=O)N[C@H](C(=O)N[C@@H](CCC(=O)O)C(=O)N[C@@H](Cc1c[nH]c2ccccc12)C(=O)N[C@@H](CC(C)C)C(=O)N[C@@H](CCCNC(=N)N)C(=O)N[C@@H](CCCCN)C(=O)N[C@@H](CCCCN)C(=O)N[C@@H](CC(C)C)C(=O)N[C@@H](CCC(N)=O)C(=O)N[C@@H](CC(=O)O)C(=O)N[C@H](C(=O)N[C@@H](Cc1c[nH]cn1)C(=O)N[C@@H](CC(N)=O)C(=O)N[C@@H](Cc1ccccc1)C(N)=O)C(C)C)C(C)C [[Leu^8] hPTH (1-34)NH2, (Leu^8)hPTH(1-34)NH2]	0.5
CC[C@H](C)[C@H](NC(=O)[C@H](CCC(=O)O)NC(=O)[C@H](CO)NC(=O)[C@@H](NC(=O)C(C)(C)N)C(C)C)C(=O)N[C@@H](CCC(N)=O)C(=O)N[C@@H](CC(C)C)C(=O)N[C@@H](CCSC)C(=O)N[C@@H](Cc1c[nH]cn1)C(=O)N[C@@H](CC(N)=O)C(=O)N[C@@H](CC(C)C)C(=O)NCC(=O)N[C@@H](CCCCN)C(=O)N[C@@H](Cc1c[nH]cn1)C(=O)N[C@@H](CC(C)C)C(=O)N[C@@H](CC(N)=O)C(=O)N[C@@H](CO)C(=O)N[C@@H](CCSC)C(=O)N[C@@H](CCC(=O)O)C(=O)N[C@@H](CCCNC(=N)N)C(=O)N[C@H](C(=O)N[C@@H](CCC(=O)O)C(=O)N[C@@H](Cc1c[nH]c2ccccc12)C(=O)N[C@@H](CC(C)C)C(=O)N[C@@H](CCCNC(=N)N)C(=O)N[C@@H](CCCCN)C(=O)N[C@@H](CCCCN)C(=O)N[C@@H](CC(C)C)C(=O)N[C@@H](CCC(N)=O)C(=O)N[C@@H](CC(=O)O)C(=O)N[C@H](C(=O)N[C@@H](Cc1c[nH]cn1)C(=O)N[C@@H](CC(N)=O)C(=O)N[C@@H](Cc1ccccc1)C(=O)O)C(C)C)C(C)C [[Aib^1] hPTH (1-34), (Aib^1)hPTH(1-34)]	1.7

Next, values leading:

Biological Activity (Represented by Relative Activity to hPTH(1-34))	Compound
1.3	CC[C@H](C)[C@H](NC(=O)[C@H](CCC(=O)O)NC(=O)[C@H](CO)NC(=O)[C@@H](NC(=O)[C@@H](N)CO)C(C)C)C(=O)N[C@@H](CCC(N)=O)C(=O)N[C@@H](CC(C)C)C(=O)N[C@@H](CCSC)C(=O)N[C@@H](Cc1c[nH]cn1)C(=O)N[C@@H](CC(N)=O)C(=O)N[C@@H](Cc1ccccc1)C(=O)NCC(=O)N[C@@H](CCCCN)C(=O)N[C@@H](Cc1c[nH]cn1)C(=O)N[C@@H](CC(C)C)C(=O)N[C@@H](CC(N)=O)C(=O)N[C@@H](CO)C(=O)N[C@@H](CCSC)C(=O)N[C@@H](CCC(=O)O)C(=O)N[C@@H](CCCNC(=N)N)C(=O)N[C@H](C(=O)N[C@@H](CCC(=O)O)C(=O)N[C@@H](Cc1c[nH]c2ccccc12)C(=O)N[C@@H](CC(C)C)C(=O)N[C@@H](CCCNC(=N)N)C(=O)N[C@@H](CCCCN)C(=O)N[C@@H](CCCCN)C(=O)N[C@@H](CC(C)C)C(=O)N[C@@H](CCC(N)=O)C(=O)N[C@@H](CC(=O)O)C(=O)N[C@H](C(=O)N[C@@H](Cc1c[nH]cn1)C(=O)N[C@@H](CC(N)=O)C(=O)N[C@@H](Cc1ccccc1)C(N)=O)C(C)C)C(C)C [[Phe^11] hPTH (1-34)NH2, (Phe^11)hPTH(1-34)NH2]
1.1	CC[C@H](C)[C@H](NC(=O)[C@H](CCC(=O)O)NC(=O)[C@H](CO)NC(=O)[C@@H](NC(=O)[C@@H](N)CO)C(C)C)C(=O)N[C@@H](CCC(N)=O)C(=O)N[C@@H](CC(C)C)C(=O)N[C@@H](CCSC)C(=O)N[C@@H](Cc1c[nH]cn1)C(=O)N[C@@H](CC(N)=O)C(=O)N[C@@H](CCCCN)C(=O)NCC(=O)N[C@@H](CCCCN)C(=O)N[C@@H](Cc1c[nH]cn1)C(=O)N[C@@H](CC(C)C)C(=O)N[C@@H](CC(N)=O)C(=O)N[C@@H](CO)C(=O)N[C@@H](CCSC)C(=O)N[C@@H](CCC(=O)O)C(=O)N[C@@H](CCCNC(=N)N)C(=O)N[C@H](C(=O)N[C@@H](CCC(=O)O)C(=O)N[C@@H](Cc1c[nH]c2ccccc12)C(=O)N[C@@H](CC(C)C)C(=O)N[C@@H](CCCNC(=N)N)C(=O)N[C@@H](CCCCN)C(=O)N[C@@H](CCCCN)C(=O)N[C@@H](CC(C)C)C(=O)N[C@@H](CCC(N)=O)C(=O)N[C@@H](CC(=O)O)C(=O)N[C@H](C(=O)N[C@@H](Cc1c[nH]cn1)C(=O)N[C@@H](CC(N)=O)C(=O)N[C@@H](Cc1ccccc1)C(N)=O)C(C)C)C(C)C [[Lys^11] hPTH (1-34)NH2, (Lys^11)hPTH(1-34)NH2]
